Blank lines part the entries; values can stand above or below the compound they belong to.
What was measured:
cancer cell lines = test: Carrier fluid and surfactant optimization, cell viability on chip; assay type: cell-based; conditions: surfactant, all tested concentrations
Source text: Firstly, we optimized the carrier fluid or oil phase to assure cell viability on chip for a minimum of 7 days for cancer cell lines. Commercial oils including Fluorinert® series oils, e.g. fluorocarbon oils, silicone oil, and mineral oil in combination with different surfactants (either mixed with oil phase or aqueous phase) at various concentrations have been tested. Among these, Fluorinert® FC-40 supplemented with 2% 008-Fluorosurfactant by Ran Biotechnologies provided optimal properties in terms of viscosity, volatility and droplet stability. Fluorosurfactant was added to prevent droplets from coalescence and cross-contamination of droplet contents when they touched each other (FIG. 6A). In addition, fluorosurfactant-emulsified droplets prevented fluorescent dye from adsorbing to the hydrophobic PDMS walls of the channel (FIG. 6B) or migrating into the oil phase (FIGS. 6C and 6D), in order to maintain constant drug concentrations in droplets. […] Droplets containing red fluorescent dye were incubated at 37° C. for 15 h, but no trace of fluorescent dye was observed along the PDMS walls as the droplet shrank due to evaporation. […]

cells = test: Time-lapse imaging of cells incubated with viability indicator dye; assay type: cell-based; conditions: 2 μM, within 48 h post-treatment
Method: Thirdly, different cell viability indicator dyes were tested for staining efficiency, indicator reliability and cytotoxicity on chip. Since the sample fluid was premixed before loading to the chip, we tested for different cell viability indicator dyes and variant concentrations to ensure that the indicator dye had no impact on cell viability, at least within the time frame of the drug susceptibility test. Eventually, ethidium homodimer 1 staining was adopted to indicate dead cells. Ethidium homodimer 1 is a cell-impermeable, high affinity nucleic acid stain emitting strong red fluorescence after binding to DNA. It gave strong red fluorescence after cells were treated with drug but not DMSO) (FIG. 12).

MDA-MB-231 cells [1] = test: On chip drug screening assay (ethidium homodimer 1 staining); assay type: cell-based, human; conditions: for IC50: Homo sapiens
Method: (§1) Jurkat E6.1 cells (ATCC® TIB-152™) and MDA-MB-231 cells (ATCC® HTB-26™) were used as models for suspended and adherent cancer cell lines respectively. Jurkat cell line was derived from human acute T cell leukemia, whereas MDA-MB-231 cell line was derived from human metastatic breast adenocarcinoma.
On chip drug screening was performed using the PDMS-based microfluidic chip as described above. A 500 μL glass syringe (Hamilton, USA) and polytetrafluoroethylene (PTFE) tubings with appropriate bore (Cole Parmer, USA) was used to connect between the syringe pump (Harvard Apparatus PHD Ultra Syringe Pump, USA) and the microfluidic chip. Fluorinert® FC-40 (Sigma-Aldrich, USA) supplemented with 2% 008-Fluorosurfactant (Ran Biotechnologies, USA) was used as oil phase; relevant cell culture medium, supplemented with 1% (w/v) methyl cellulose (Sigma-Aldrich, USA) was used as aqueous phase. Cells treated with 0.1% dimethyl sulfoxide (DMSO) were used as negative control.
Briefly, cells at final concentrations of 1-2×10^6 cells per mL were aliquoted in 0.2 mL PCR tubes, then mixed with corresponding drugs and 2 μM ethidium homodimer 1 (Life Technologies, USA) by manual pipetting. Next, […], cell-drug mixtures were loaded into the tubing, consecutively segregated by oil phase at withdrawal rate of 200 μL/h by syringe pump. After loading all mixtures, the tubing was inserted into the microfluidic chip, which was back-flushed with oil phase at 500 μL/h by syringe pump. After that, the mixtures were infused at 25 μL/h by syringe pump. Finally, the inlet and outlet tubings were cut and sealed with Vaseline (Vaseline, USA). The chips were placed in 150 mm cell culture dish (Coming, USA) containing wet paper towels, and transferred to humidified incubator at 37° C. supplemented with 5% CO2 for 16-24 h incubation. Brightfield and red fluorescence images (Ex. 531/40 nm, Em. 593/40 nm) were taken under 10× magnification (Life Technologies EVOS FL Imaging System, USA).
For on chip assays, brightfield and red fluorescence images were initially processed by ImageJ v.1.50i, Cell counting was either performed manually or by Matlab v.R201.5a based on the workflow shown on FIG. 5B. Briefly, cells from brightfield and red fluorescence images were detected separately using a heuristic Hough Transformation model based on threshold implementation on circular diameter and pixel intensity. Next, each recognized cell was dissected into 10×10 pixels matrix for analysis of its pixel intensity. Subsequently, two layers of multi-radii analysis of pixel intensity around the center of each matrix distinguished signal from noise. Afterwards, cells were distinguished from noise based on the brightfield image, whereas cell viability was determined by signal intensity of corresponding red fluorescence image. Finally, positional information (defined by row: x, and column: y) and size (defined by radius: r) of discrete image matrix was used to classify each cell as “live” or “dead”. The total number of cells in each image corresponding to each droplet formation well on chip was summarized as a table in CSV format for calculation of cell viability. […]
For on chip assays, the number of cells was counted in brightfield and red fluorescence images from each well respectively. Cell viability was calculated as follows: […]
where Total cells and Dead cells referred to the total number of cells counted from brightfield and red fluorescence images, respectively. […]

Jurkat cells [2] = test: as above; assay type: cell-based, human
Method: Jurkat E6.1 cells (ATCC® TIB-152™) and MDA-MB-231 cells (ATCC® HTB-26™) were used as models for suspended and adherent cancer cell lines respectively. Jurkat cell line was derived from human acute T cell leukemia, whereas MDA-MB-231 cell line was derived from human metastatic breast adenocarcinoma. On chip drug screening was performed using the PDMS-based microfluidic chip as described above. A 500 μL glass syringe (Hamilton, USA) and polytetrafluoroethylene (PTFE) tubings with appropriate bore (Cole Parmer, USA) was used to connect between the syringe pump (Harvard Apparatus PHD Ultra Syringe Pump, USA) and the microfluidic chip. Fluorinert® FC-40 (Sigma-Aldrich, USA) supplemented with 2% 008-Fluorosurfactant (Ran Biotechnologies, USA) was used as oil phase; relevant cell culture medium, supplemented with 1% (w/v) methyl cellulose (Sigma-Aldrich, USA) was used as aqueous phase. Cells treated with 0.1% dimethyl sulfoxide (DMSO) were used as negative control. […] Next, […], cell-drug mixtures were loaded into the tubing, consecutively segregated by oil phase at withdrawal rate of 200 μL/h by syringe pump. After loading all mixtures, the tubing was inserted into the microfluidic chip, which was back-flushed with oil phase at 500 μL/h by syringe pump. After that, the mixtures were infused at 25 μL/h by syringe pump. Finally, the inlet and outlet tubings were cut and sealed with Vaseline (Vaseline, USA). […] Brightfield and red fluorescence images (Ex. 531/40 nm, Em. 593/40 nm) were taken under 10× magnification (Life Technologies EVOS FL Imaging System, USA). […] For on chip assays, the number of cells was counted in brightfield and red fluorescence images from each well respectively.

Jurkat cells [3] = test: 384-well microtiter plate drug screening assay (Alamar Blue); assay type: cell-based, human; conditions: 384-well plate
Method: as §1
(§2) Microtiter plate drug screening assays were carried out on 96-well clear round flat-bottom plates (Corning, USA) or 384-well white square flat-bottom plates (Corning, USA).
(§3) First, 5.0×10^5 or 1.0×10^5 cells were seeded per well for 96-well and 384-well plates respectively. Drugs were diluted with Dulbecco's phosphate-buffered saline (DPBS) (Life Technologies, USA), and subsequently added to achieve final drug concentrations as indicated on the graphs. Afterwards, the plates were transferred to humidified incubator at 37° C. supplemented with 5% CO2 for 16-24 h incubation. Finally, Alamar Blue assay was used to measure cell viability. Fluorescence intensity (Ex. 560 nm, Em. 590 nm) using auto-cutoff was measured from bottom on plate reader (Molecular Devices SpectraMax MS Plate Reader, USA). Cells treated with 0.1% dimethyl sulfoxide (DMSO) were used as negative control, while no cells were added to blank control. All experiments were performed in triplicate for 96-well plates and in quadruplicates for 384-well relates.
(§4) For microliter plate assays, average relative fluorescence signal measured by plate reader from 6 reads of each well was used as raw data point. Cell viability was calculated as follows: […]
(§5) where Sample represented raw data points of each sample well, whereas DMSO control and Blank represented average raw data points of all DMSO control and Blank wells, respectively.

MDA-MB-231 cells [4] = test: as above; assay type: cell-based, human; conditions: 384-well plate
Method: as §1, §2, §3, §4, §5

Jurkat cells [5] = test: 96-well microtiter plate drug screening assay (Alamar Blue); assay type: cell-based, human; conditions: 96-well plate
Method: as §1, §2, §3, §4, §5

MDA-MB-231 cells [6] = test: as above; assay type: cell-based, human; conditions: 96-well plate
Method: as §1, §2, §3, §4, §5

Compound: Triton X-100
effect on cell viability (cancer cell lines): compromised cell viability

Compound: ethidium homodimer 1
effect on cell death and proliferation (cells): did not affect cell death and proliferation

IC50 (MDA-MB-231 cells [1]): 33300 nM
Compound: O=C(CCCCCCC(=O)Nc1ccccc1)NO [vorinostat]
cell viability plateau (Jurkat cells [2]; all doses tested): above 50%
cell viability plateau (Jurkat cells [3]; all doses tested): above 50%
cell viability plateau (MDA-MB-231 cells [4]): above 50%
cell viability plateau (Jurkat cells [5]; all doses tested): above 50%
cell viability plateau (MDA-MB-231 cells [6]): above 50%

IC50 (MDA-MB-231 cells [1]): 5500 nM
IC50 (Jurkat cells [2]; Homo sapiens, 16-24 h): 1000 to 2200 nM
IC50 (Jurkat cells [3]; Homo sapiens, 16-24 h): 1000 to 2200 nM
IC50 (MDA-MB-231 cells [4]; Homo sapiens): 500 nM
IC50 (Jurkat cells [5]; Homo sapiens, 16-24 h): 1000 to 2200 nM
IC50 (MDA-MB-231 cells [6]; Homo sapiens): 600 nM
Compound: COc1cccc2c1C(=O)c1c(O)c3c(c(O)c1C2=O)C[C@@](O)(C(=O)CO)C[C@@H]3O[C@H]1C[C@H](N)[C@@H](O)[C@H](C)O1 [epirubicin]
cell viability leveled off (MDA-MB-231 cells [1]; after reaching IC50): approximately 50%

Compound: CCCCCCCCCCCCOS(=O)(=O)[O-].[Na+] [sodium dodecyl sulfate]
effect on cell viability (cancer cell lines): compromised cell viability

From US20190291112A1, “DROPLET MICROFLUIDICS FOR DRUG SCREENING” (University of Macau, priority 2018, published 2019)
